From US20130158111A1, “Compositions and Methods for Depleting Mutant p53” (Georgetown University, priority 2011, published 2013)

How the values were obtained:
[1] = system: H522 cells; assay: Apoptosis and cell cycle progression, H522; assay type: cell-based; conditions: H522, 4 uM PEITC
Excerpt: The negative effects of PEITC on cell proliferation might affect the apoptotic potential of the cells and the cell cycle progression.

[2] = target: T1, p53 in H1299-143A cells (Homo sapiens, UniProt P04637, V143A); assay: PEITC-induced p53 depletion in H1299-143A cells, mutant vs wild-type conformation; assay type: cell-based; conditions: 20 μM PEITC, 24 h
T1 construct: expressed in transfected cells; host or cells: H1299-143A
Procedure: FIG. 2 depicts PEITC depleting p53 protein in human cancer cells with different p53 mutation but not in cells with wild-type p53. (A) Cell lines harboring mutant p53 were treated with 15 μM PEITC (MDA-MB-231, MDA-MB-468, and SCC-4) or 10 μM PEITC (DU145 and SW480) for the indicated times. (B) Cells with wild-type p53 were treated with 20 μM PEITC (HCT116, A549, and MCF-7) or 15 μM PEITC (MCF-10A) for the indicated times. […] H1299-175H cells are used as control. Both cells were treated with 20 μM PEITC for 24 h.

[3] = system: DU145 (mutant p53) xenograft tumors; assay: Xenograft model, DU145 tumors, PEITC diet; assay type: in vivo, BALB/C nu/nu transgenic mice
Procedure: Briefly, 30 BALB/C nu/nu transgenic mice (purchased from Charles River) were randomized into two groups, and fed with powder diet AlN93 (purchased from Research Diets, Inc.) with or without addition of 5 μM PEITC compound (purchased from Sigma-Aldrich). After two weeks of feeding, two xenograft tumors each carrying […] in a volume of 100 μL were established by injection into both flanks of a mouse. Mice were continuously fed with diets with or without PEITC for additional 8 weeks before sacrifice. Diet intake and tumor volume were measured twice every week. Tumors were harvested at the end of bioassay for immunohistochemistry and immunoblot studies. […] Immunohistochemistry assays were carried out to examine the apoptotic markers, such as TUNEL, and anti-proliferation marker Ki67 in tumors from the PEITC-treated vs. untreated mice. This study provides the first in vivo evidence that mutant p53 can be depleted in tumors of mice fed PEITC-containing diet and its depletion seems to correlate with growth inhibition in the mutant p53 tumors.

[4] = system: HOP-92 (R175L) cell line; assay: Cell proliferation, HOP-92; assay type: cell-based; conditions: Homo sapiens, 250 nM PEITC
Procedure: Next, the effect of PEITC exposure on tumor growth of the tumor cell lines expressing mutant or the WT p53 protein was examined. […] This hypersensitivity to PEITC being mediated through mutant p53 was next examined. The effect of PEITC on mda-mb-231 cells depleted of mutant p53 by >90% was compared to non-specific (NS) siRNA transfected cells as a control (FIG. 9B). […] Further the effect of PEITC treatment on the level of mutant p53 protein at lower doses was analyzed by western blot analysis (FIG. 9D).

In the case of `S=C=NCCc1ccccc1` [PEITC, phenethyl isothiocyanate], the “apoptosis compared to DMSO treated cells” value [1] is reported as “two fold increase”, the cell cycle progression [1] is reported as “S-phase arrest” and the “sensitivity to PEITC-induced p53 depletion, mutant conformation (37° C.) vs wild-type conformation (32.5° C.)” value [2] is reported as “more sensitive”. For the same compound, the “p53 level in tumors detected by immunoblot” value ([3]; DU145 tumors, PEITC diet) was “moderate, yet significant, decrease”, the tumor volume ([3]; DU145 xenograft, diet with 5 μM PEITC vs diet without PEITC, 8 weeks) was “significantly decreased” and the inhibition at 0.25 µM [4] was 40%.
